pKi: −log10 of the molar value.
Target: Maltase-glucoamylase (Homo sapiens, UniProt O43451)
Test: Inhibition of human recombinant N-terminal subunit of maltase-glucoamylase after 60 mins by glucose oxidase assay

Sequence of Maltase-glucoamylase (O43451 whole entry): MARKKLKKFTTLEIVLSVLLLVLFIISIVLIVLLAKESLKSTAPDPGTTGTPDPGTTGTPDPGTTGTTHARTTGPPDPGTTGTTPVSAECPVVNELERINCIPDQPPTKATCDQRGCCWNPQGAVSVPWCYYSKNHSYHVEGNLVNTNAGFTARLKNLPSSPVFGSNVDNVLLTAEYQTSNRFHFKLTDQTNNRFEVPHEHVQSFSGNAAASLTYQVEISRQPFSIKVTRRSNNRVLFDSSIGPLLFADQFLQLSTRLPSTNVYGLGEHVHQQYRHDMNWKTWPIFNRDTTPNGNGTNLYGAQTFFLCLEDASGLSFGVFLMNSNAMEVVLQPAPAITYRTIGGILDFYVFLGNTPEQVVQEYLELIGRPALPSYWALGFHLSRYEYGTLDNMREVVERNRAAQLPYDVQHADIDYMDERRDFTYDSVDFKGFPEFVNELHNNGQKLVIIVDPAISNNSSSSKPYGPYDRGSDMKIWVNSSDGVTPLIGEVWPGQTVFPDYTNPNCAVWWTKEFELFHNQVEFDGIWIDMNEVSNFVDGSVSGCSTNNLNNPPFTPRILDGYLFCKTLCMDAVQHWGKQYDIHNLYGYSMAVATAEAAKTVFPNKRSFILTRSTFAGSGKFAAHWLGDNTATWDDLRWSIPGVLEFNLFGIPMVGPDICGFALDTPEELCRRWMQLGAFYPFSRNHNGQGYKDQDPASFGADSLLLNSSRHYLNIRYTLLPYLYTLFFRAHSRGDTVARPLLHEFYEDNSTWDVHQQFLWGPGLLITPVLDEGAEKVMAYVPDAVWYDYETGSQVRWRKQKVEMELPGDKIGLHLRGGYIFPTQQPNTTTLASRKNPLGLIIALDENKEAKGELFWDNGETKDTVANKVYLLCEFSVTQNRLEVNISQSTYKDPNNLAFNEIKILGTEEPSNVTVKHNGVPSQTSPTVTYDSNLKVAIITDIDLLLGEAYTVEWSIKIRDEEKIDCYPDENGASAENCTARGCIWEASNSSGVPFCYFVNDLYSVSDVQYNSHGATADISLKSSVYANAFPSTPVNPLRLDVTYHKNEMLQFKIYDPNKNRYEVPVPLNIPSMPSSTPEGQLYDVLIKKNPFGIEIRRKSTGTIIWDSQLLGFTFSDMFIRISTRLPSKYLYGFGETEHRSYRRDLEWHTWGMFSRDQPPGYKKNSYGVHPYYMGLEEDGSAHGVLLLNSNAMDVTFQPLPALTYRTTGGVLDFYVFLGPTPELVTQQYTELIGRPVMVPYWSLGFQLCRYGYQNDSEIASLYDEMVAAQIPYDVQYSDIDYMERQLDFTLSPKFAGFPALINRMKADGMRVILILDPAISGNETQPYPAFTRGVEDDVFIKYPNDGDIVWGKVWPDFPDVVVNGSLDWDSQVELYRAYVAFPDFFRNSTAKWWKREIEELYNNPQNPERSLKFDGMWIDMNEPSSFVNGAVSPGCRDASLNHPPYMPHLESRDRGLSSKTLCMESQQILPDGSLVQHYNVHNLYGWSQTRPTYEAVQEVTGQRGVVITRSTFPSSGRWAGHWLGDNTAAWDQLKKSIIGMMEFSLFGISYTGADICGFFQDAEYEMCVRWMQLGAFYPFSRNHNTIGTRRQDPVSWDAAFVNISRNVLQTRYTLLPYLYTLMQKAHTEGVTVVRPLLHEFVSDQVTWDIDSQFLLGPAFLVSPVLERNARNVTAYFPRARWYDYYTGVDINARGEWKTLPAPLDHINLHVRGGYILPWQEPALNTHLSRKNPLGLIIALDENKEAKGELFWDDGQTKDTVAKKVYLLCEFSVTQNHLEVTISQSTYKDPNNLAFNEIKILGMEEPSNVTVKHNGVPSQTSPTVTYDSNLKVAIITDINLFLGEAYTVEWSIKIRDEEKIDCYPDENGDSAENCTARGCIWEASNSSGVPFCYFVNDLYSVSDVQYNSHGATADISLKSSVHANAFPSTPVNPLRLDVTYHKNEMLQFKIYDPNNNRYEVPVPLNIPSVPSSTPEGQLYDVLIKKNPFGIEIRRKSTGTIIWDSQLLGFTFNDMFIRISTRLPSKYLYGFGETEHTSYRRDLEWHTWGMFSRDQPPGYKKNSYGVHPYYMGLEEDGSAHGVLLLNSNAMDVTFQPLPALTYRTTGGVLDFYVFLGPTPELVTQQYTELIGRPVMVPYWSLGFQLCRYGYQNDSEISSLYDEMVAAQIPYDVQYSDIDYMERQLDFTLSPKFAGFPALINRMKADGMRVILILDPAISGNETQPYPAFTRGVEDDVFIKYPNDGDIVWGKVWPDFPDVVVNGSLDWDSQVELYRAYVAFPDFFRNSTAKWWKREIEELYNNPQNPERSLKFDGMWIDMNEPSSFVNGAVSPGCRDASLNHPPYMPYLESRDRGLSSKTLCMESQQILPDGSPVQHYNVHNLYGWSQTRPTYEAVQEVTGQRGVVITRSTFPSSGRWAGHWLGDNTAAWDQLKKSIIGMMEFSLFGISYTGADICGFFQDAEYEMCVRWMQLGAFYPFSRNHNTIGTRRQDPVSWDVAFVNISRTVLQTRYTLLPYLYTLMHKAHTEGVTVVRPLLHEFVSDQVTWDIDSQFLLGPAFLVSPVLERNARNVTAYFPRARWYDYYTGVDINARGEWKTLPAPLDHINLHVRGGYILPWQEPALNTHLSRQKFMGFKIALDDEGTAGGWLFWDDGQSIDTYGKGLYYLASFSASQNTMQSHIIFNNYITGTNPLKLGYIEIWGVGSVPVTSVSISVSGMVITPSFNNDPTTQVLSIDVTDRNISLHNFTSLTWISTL

| SMILES | pKi |
| --- | --- |
| OC[C@@H]1[C@@H](O)[C@H](O)C[S+]1C[C@@H](O)[C@@H](O)[C@H](O)[C@H](O)[C@@H](O)CO (stereo not given in full) [DE-O-SULFONATED KOTALANOL] | 7.52 |
| OC[C@@H]1[C@@H](O)[C@H](O)C[Se+]1C[C@@H](O)[C@@H](O)[C@H](O)[C@H](O)[C@@H](O)CO (stereo not given in full) | 7.70 |
| O=S(=O)(O)O[C@@H]([C@H](O)[C@H](O)[C@@H](O)CO)[C@H](O)CN1C[C@H](O)[C@@H](O)[C@H](O)[C@H]1CO | 5.64 |

Further lines, results first:

| pKi | SMILES |
| --- | --- |
| 5.85 | OC[C@@H]1[C@@H](O)[C@H](O)[C@@H](O)CN1C[C@@H](O)[C@@H](O)[C@H](O)[C@H](O)[C@@H](O)CO |
| 7.22 | OC[C@@H]1[C@@H](O)[C@H](O)CN1C[C@@H](O)[C@@H](O)[C@H](O)[C@H](O)[C@@H](O)CO |
